Assay results: patent US6632813B1, “6-subtituted-7-heteroquinoxalinecarboxylic acid derivatives and addition salts thereof and processes for the preparation of both” (Kyorin Pharmaceutical Co., Ltd., priority 1999, dated 2003)

Tests used:
AMPA receptor = assay: Binding experiment against AMPA receptor ([3H]-AMPA binding, crude synaptic membranes from cerebral cortex); conditions: [3H]-AMPA 5 nmol/L, potassium thiocyanate 100 mmol/L, 30 minutes at 0° C., rat cerebral cortex crude synaptic membranes; IC50 converted to Ki; read-out: [3H]-AMPA (Ki: μmol/L)
Experimental: Binding Experiment Against AMPA Receptor
To a crude synaptic membranes preparation prepared from cerebral cortex in rat were added [^3H]-AMPA (final concentration: 5 nmol/L) that binds selectively to AMPA receptors, potassium thiocyanate (final concentration: 100 mmol/L) and testing compound, and the mixture was incubated for 30 minutes at 0° C. After the reaction was stopped by suction filtration, the radioactivity on filter was measured with liquid scintillation counter. The specific binding level of [^3H]-AMPA was determined by subtracting the non-specific binding level in the presence of glutamic acid (0.1 mmol/L) from total binding level. The [^3H]-AMPA binding in the absence of testing compound was put on 100, and the concentration of compound to decrease by 50% (IC50 value) was determined, which was converted to Ki value to calculate the binding capacity of each compound to AMPA receptor (Eur. J. Pharmacol., 1993, 246, 195-204).

melting point | Ki (AMPA receptor) [µmol/L] | Structure (SMILES)
> 300 °C | 0.067 | O=C(NCc1ccn(-c2cc3nc(C(=O)O)c(=O)[nH]c3cc2Cl)c1)Nc1ccc(C(=O)O)cc1 [Example 10, 7-(3-(((4-Carboxyphenyl)aminocarbonylamino)methyl)pyrrole-1-yl)-6-chloro-3,4-dihydro-3-oxoquinoxaline-2-carboxylic Acid]
> 300 °C | 0.323 | COc1cc2[nH]c(=O)c(C(=O)O)nc2cc1-n1ccc(CNC(=O)Nc2ccc(C(=O)O)cc2)c1 [Example 11, 7-(3-(((4-Carboxyphenyl)aminocarbonylamino)methyl)pyrrole-1-yl)-3,4-dihydro-6-methoxy-3-oxoquinoxaline-2-carboxylic Acid]
> 300 °C | 0.178 | Cc1cc2[nH]c(=O)c(C(=O)O)nc2cc1-n1ccc(CNC(=O)Nc2ccc(C(=O)O)cc2)c1 [Example 12, 7-(3-(((4-Carboxyphenyl)aminocarbonylamino)methyl)pyrrole-1-yl)-3,4-dihydro-6-methyl-3-oxoquinoxaline-2-carboxylic Acid]
> 300 °C | 0.924 | O=C(NCc1ccn(-c2cc3nc(C(=O)O)c(=O)[nH]c3cc2F)c1)Nc1ccc(C(=O)O)cc1 [Example 13]
171 to 173 °C (dec.) |  | O=C(NCc1ccn(-c2cc3nc(C(=O)O)c(=O)[nH]c3cc2Cl)c1)Nc1ccccc1 [Example 26]
158 to 160 °C (dec.) |  | CC(C)NC(=O)NCc1ccn(-c2cc3nc(C(=O)O)c(=O)[nH]c3cc2Cl)c1 [Example 37]
208 to 210 °C (dec.) |  | COc1ccc(NC(=O)NCc2ccn(-c3cc4nc(C(=O)O)c(=O)[nH]c4cc3Cl)c2)cc1 [Example 38, 6-Chloro-3,4-dihydro-7-(3-(((4-methoxyphenyl)aminocarbonylamino)methyl)pyrrole-1-yl)-3-oxoquinoxaline-2-carboxylic Acid]
193 to 195 °C (dec.) |  | O=C(NCc1ccn(-c2cc3nc(C(=O)O)c(=O)[nH]c3cc2Cl)c1)Nc1ccc(Cl)cc1 [Example 39, 6-Chloro-7-(3-(((4-chlorophenyl)aminocarbonylamino)methyl)pyrrole-1-yl)-3,4-dihydro-3-oxoquinoxaline-2-carboxylic Acid]
196 to 198 °C |  | O=C(NCc1ccn(-c2cc3nc(C(=O)O)c(=O)[nH]c3cc2Cl)c1)Nc1cccc2ccccc12 [Example 40, 6-Chloro-3,4-dihydro-7-(3-(((1-naphthyl)aminocarbonylamino)methyl)pyrrole-1-yl)-3-oxoquinoxaline-2-carboxylic Acid]
199 to 201 °C (dec.) |  | O=C(Nc1ccccc1)OCc1cn(-c2cc3nc(C(=O)O)c(=O)[nH]c3cc2Cl)cn1 [Example 47, 6-Chloro-3,4-dihydro-3-oxo-7-(4-((phenylcarbamoyloxy)methyl)imidazole-1-yl)quinoxaline-2-carboxylic Acid]
246 to 248 °C (dec.) |  | O=C(Nc1ccc(C(=O)O)cc1)OCc1cn(-c2cc3nc(C(=O)O)c(=O)[nH]c3cc2Cl)cn1 [Example 53, 7-(4-(((4-Carboxyphenyl)carbamoyloxy)methyl)imidazole-1-yl)-6-chloro-3,4-dihydro-3-oxoquinoxaline-2-carboxylic Acid]
